Results taken from patent US20260365670A1, “EGFR INHIBITORS AND USES THEREOF” (DIZAL (JIANGSU) PHARMACEUTICAL CO., LTD., priority 2022, published 2026).
Like-named read-outs stand apart in the source and are kept apart here.

Experiments:
A-431 = experiment: Cell proliferation GI50, A-431 cells (Table 6); assay type: cell-based; settings: A-431 cells
Method: [Worded in the source for another cell line; this cell line is reported under the same test.] Ba/F3 cells expressing EGFR mutations were seeded in 384-well plates at 5000 cells/well in RPMI1640 medium containing […]. PC-9 at 500 cells/well was seeded into 384-well plates in RPMI1640 medium with 10% FBS. After overnight incubation, the assay plates were dosed with compounds at a series of concentrations. Alongside dosing the assay plates, the day 0 plate was processed using CellTiter-Glo® Luminescent Cell Viability Assay (Promega) to measure the number of viable cells (G0). The assay plates were further incubated for 72 hours and the number of viable cells (G3) was measured. The percentage of proliferation was calculated as: […]=100×(G3 value of sample well−G0 value)/(G3 value of DMSO control−G0 value). The concentration of compound producing 50% proliferation inhibition (GI50) was further calculated in best-fit curves using XLFit software. N/A=not available.

[1] = test system: Ba/F3 cells expressing EGFR mutations; experiment: Cell proliferation assay, Ba/F3 cells expressing EGFR mutations (CellTiter-Glo, 72 hours); assay type: cell-based
Procedure, shortened: (§1)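 In RPMI1640 medium (PC-9 with 10% FBS), each cell line was seeded at its own density: Ba/F3 5000 and PC-9 500 per well. A compound series was added the next day, with a time-zero viability plate read in parallel. Percent proliferation was subtracted for G0 and referenced to DMSO, and GI50 was derived by curve fitting.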

PC-9 = experiment: Cell proliferation assay, PC-9 cells (CellTiter-Glo, 72 hours); assay type: cell-based; settings: PC9 cells
Procedure, shortened: as §1

EGFR Exon19Del/T790M = target: T1, EGFR Exon19Del/T790M (Homo sapiens, UniProt P00533, DEL746-750/T790M); experiment: Inhibition of EGFR Exon19Del/T790M biochemical enzymatic activity (HTRF); settings: EGFR Exon19Del/T790M, 1 mM ATP, 1 h at room temperature
T1 construct: purchased Carna Bio
Procedure, shortened: (§2)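 Following 1 h at room temperature with titrated compound, 1 mM ATP and 1 μM biotin-TK peptide (Mg2+/Mn2+, CHAPS, DTT, 0.5% DMSO buffer), EDTA-containing detection reagent terminated each enzyme reaction. Time-resolved fluorescence (ex 320, em 665/615 nm) ratio tracked activity. IC50 values came from four-parameter fits.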

EGFR[T790M/C797S/L858R] = target: T2, EGFR[T790M/C797S/L858R] (Homo sapiens, UniProt P00533, C797S/L858R/T790M); experiment: Inhibition of EGFR[T790M/C797S/L858R] biochemical enzymatic activity (HTRF); settings: EGFR[T790M/C797S/L858R], 1 mM ATP, 1 h at room temperature
T2 construct: purchased Carna Bio
Procedure, shortened: as §2

EGFR wild type = target: T3, EGFR wild type (Homo sapiens, UniProt P00533); experiment: Inhibition of EGFR wild type biochemical enzymatic activity (HTRF); settings: EGFR wild type, 1 mM ATP, 1 h at room temperature
T3 construct: purchased Carna Bio
Procedure, shortened: as §2

EGFR L858R/T790M = target: T4, EGFR L858R/T790M (Homo sapiens, UniProt P00533, L858R/T790M); experiment: Inhibition of EGFR L858R/T790M biochemical enzymatic activity (HTRF); settings: EGFR L858R/T790M, 1 mM ATP, 1 h at room temperature
T4 construct: purchased Carna Bio
Procedure, shortened: as §2

EGFR (C797S L858R) = target: T5, EGFR (C797S L858R) (Homo sapiens, UniProt P00533, C797S/L858R); experiment: Inhibition of EGFR (C797S L858R) biochemical enzymatic activity (HTRF); settings: EGFR (C797S L858R), 1 mM ATP, 1 h at room temperature
T5 construct: purchased signalchem
Procedure, shortened: as §2

EGFR (d746-750 C797S) = target: T6, EGFR (d746-750 C797S) (Homo sapiens, UniProt P00533, C797S/DEL746-750); experiment: Inhibition of EGFR (d746-750 C797S) biochemical enzymatic activity (HTRF); settings: EGFR (d746-750 C797S), 1 mM ATP, 1 h at room temperature
T6 construct: purchased signalchem
Procedure, shortened: as §2

EGFR L858R = target: T7, EGFR L858R (Homo sapiens, UniProt P00533, L858R); experiment: Inhibition of EGFR L858R biochemical enzymatic activity (HTRF); settings: 1 mM ATP, 1 h at room temperature
T7 construct: purchased Carna Bio
Procedure, shortened: as §2

[2] = target: T8, EGFR[T790M/C797S/d746-750] (Homo sapiens, UniProt P00533, C797S/DEL746-750/T790M); experiment: Inhibition of EGFR[T790M/C797S/d746-750] biochemical enzymatic activity (HTRF); settings: 1 mM ATP, 1 h at room temperature
T8 construct: purchased Carna Bio
Procedure, shortened: as §2

EGFR Exon19Del = target: T9, EGFR Exon19Del (Homo sapiens, UniProt P00533, DEL746-750); experiment: Inhibition of EGFR Exon19Del biochemical enzymatic activity (HTRF); settings: 1 mM ATP, 1 h at room temperature
T9 construct: purchased Carna Bio
Procedure, shortened: as §2

[3] = BaF3 cells, EGFR DEL19-C797S, CellTiter-Glo, read-out: DEL19-C797S/BaF3 GI50
[4] = BaF3 cells, EGFR DEL19-T790-C797S, CellTiter-Glo, read-out: DEL19-T790-C797S/BaF3 GI50
[5] = BaF3 cells, EGFR L858R, CellTiter-Glo, read-out: L858R/BaF3 GI50
[6] = BaF3 cells, EGFR L858R-C797S, CellTiter-Glo, read-out: L858R-C797S/BaF3 GI50
[7] = BaF3 cells, EGFR L858R-T790-C797S, CellTiter-Glo, read-out: L858R-T790-C797S/BaF3 GI50
[8] = BaF3 cells, EGFR L858R-T790M, CellTiter-Glo, read-out: L858R-T790M/BaF3 GI50
[9] = EGFR DEL19-T790M, CellTiter-Glo, read-out: DEL19-T790M GI50
[10] = CellTiter-Glo, read-out: PC9 GI50
[11] = Mus musculus, BaF3, 72 h, BaF3 cells, EGFR DEL19 - C797S, read-out: GI50 DEL19 - C797S/BaF3
[12] = Mus musculus, BaF3, 72 h, BaF3 cells, EGFR DEL19 - T790-C797S, read-out: GI50 DEL19 - T790-C797S/BaF3
[13] = Mus musculus, BaF3, 72 h, BaF3 cells, EGFR L858R - C797S, read-out: GI50 L858R - C797S/BaF3
[14] = Mus musculus, BaF3, 72 h, BaF3 cells, EGFR L858R - T790-C797S, read-out: GI50 L858R - T790-C797S/BaF3
[15] = Mus musculus, BaF3, 72 h, BaF3 cells, EGFR L858R, read-out: GI50 L858R/BaF3
[16] = Mus musculus, BaF3, 72 h, EGFR DEL19 - T790M, read-out: GI50 DEL19 - T790M
[17] = Homo sapiens, PC-9, 72 h, read-out: GI50 PC9

T8 sequence (P00533 with tags, fused parts or gaps DEL746-750/T790M/C797S limits assumed): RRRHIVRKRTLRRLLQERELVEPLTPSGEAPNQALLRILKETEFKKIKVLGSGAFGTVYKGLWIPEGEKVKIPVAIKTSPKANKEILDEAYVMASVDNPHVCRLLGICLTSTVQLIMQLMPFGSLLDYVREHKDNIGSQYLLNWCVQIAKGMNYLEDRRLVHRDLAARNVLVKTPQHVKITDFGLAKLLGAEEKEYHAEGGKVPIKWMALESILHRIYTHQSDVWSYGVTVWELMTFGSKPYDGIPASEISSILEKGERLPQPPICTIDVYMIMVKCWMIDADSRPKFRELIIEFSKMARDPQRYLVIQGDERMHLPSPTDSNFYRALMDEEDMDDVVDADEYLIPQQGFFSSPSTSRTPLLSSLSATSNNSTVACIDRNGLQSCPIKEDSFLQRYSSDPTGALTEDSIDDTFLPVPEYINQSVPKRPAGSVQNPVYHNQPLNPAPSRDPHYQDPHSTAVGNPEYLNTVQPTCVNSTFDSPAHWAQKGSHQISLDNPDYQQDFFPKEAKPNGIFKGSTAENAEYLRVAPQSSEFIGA
T3 sequence (P00533 25-1210): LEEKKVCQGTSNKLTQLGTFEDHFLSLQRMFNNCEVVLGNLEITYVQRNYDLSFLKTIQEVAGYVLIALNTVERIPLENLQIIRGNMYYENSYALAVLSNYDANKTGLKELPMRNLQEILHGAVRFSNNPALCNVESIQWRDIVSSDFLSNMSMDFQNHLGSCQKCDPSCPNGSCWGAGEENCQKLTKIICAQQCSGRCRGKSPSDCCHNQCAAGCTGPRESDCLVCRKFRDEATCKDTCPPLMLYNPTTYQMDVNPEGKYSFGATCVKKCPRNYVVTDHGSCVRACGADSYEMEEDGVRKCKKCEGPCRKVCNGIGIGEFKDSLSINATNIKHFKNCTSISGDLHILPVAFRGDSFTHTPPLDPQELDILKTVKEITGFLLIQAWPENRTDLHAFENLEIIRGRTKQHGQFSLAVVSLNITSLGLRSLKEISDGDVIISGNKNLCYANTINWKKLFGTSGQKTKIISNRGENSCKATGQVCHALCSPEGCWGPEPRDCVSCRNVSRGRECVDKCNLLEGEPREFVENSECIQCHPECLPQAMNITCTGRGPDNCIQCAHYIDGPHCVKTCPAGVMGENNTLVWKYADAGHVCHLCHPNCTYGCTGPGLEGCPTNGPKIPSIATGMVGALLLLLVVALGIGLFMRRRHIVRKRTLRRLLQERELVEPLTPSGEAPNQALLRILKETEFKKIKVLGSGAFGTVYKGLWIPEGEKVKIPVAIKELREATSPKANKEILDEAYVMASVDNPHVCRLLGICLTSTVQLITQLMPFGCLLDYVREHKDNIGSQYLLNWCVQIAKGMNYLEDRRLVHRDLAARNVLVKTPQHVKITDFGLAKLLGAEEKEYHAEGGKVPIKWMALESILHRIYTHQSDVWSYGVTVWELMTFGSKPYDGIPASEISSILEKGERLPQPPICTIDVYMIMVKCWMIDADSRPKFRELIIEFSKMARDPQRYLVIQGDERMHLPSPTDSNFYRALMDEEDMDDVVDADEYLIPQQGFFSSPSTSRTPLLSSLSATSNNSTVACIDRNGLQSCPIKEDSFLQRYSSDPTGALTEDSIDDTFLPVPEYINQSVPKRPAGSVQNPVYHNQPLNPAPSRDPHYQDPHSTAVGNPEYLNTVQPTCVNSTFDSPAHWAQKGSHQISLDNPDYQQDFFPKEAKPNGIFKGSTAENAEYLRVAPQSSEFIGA
T1 sequence (P00533 with tags, fused parts or gaps DEL746-750/T790M limits assumed): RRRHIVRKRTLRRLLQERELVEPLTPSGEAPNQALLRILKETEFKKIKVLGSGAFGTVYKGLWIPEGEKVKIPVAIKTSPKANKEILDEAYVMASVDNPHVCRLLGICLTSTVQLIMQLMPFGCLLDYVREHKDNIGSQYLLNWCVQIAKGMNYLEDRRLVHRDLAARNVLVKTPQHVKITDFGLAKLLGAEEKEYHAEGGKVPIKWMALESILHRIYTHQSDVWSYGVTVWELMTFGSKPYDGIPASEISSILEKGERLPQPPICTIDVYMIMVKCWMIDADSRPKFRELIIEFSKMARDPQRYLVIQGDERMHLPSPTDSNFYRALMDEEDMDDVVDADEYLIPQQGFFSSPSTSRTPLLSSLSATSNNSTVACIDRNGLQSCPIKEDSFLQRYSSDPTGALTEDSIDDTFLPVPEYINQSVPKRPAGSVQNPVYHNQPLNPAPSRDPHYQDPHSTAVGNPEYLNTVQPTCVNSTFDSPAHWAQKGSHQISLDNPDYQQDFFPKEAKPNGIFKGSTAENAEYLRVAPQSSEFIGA
T5 sequence (P00533 25-1210 C797S/L858R): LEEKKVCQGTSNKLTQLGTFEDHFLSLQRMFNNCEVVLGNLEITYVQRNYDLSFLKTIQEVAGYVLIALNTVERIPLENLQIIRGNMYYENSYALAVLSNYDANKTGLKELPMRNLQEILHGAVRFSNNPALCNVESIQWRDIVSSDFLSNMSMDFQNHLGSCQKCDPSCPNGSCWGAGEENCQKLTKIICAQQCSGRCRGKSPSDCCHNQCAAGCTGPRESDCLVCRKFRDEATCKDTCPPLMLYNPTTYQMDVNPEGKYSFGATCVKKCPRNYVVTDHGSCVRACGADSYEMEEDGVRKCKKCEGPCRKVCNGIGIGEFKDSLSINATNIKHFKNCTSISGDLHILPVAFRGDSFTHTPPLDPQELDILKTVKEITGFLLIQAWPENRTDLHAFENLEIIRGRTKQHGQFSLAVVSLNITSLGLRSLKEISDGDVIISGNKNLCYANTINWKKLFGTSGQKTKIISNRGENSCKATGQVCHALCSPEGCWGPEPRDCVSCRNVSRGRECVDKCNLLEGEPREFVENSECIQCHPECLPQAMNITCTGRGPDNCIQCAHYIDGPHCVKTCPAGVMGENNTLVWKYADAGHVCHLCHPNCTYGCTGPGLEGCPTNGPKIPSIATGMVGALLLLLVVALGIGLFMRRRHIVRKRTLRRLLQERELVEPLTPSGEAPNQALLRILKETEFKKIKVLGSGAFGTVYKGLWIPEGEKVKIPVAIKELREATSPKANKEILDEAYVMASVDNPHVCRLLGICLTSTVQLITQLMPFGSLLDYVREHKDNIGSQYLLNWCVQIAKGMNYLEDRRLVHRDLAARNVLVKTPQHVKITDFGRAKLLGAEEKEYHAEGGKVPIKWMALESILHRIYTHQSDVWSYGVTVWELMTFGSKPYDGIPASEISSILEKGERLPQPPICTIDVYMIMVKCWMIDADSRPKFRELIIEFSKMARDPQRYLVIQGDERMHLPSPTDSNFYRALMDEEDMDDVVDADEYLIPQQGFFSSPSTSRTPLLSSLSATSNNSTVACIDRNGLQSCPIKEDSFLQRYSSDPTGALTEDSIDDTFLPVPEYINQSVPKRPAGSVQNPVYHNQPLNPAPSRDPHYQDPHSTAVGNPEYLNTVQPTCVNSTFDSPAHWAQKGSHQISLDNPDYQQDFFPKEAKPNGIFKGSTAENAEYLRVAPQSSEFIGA
T6 sequence (P00533 with tags, fused parts or gaps DEL746-750/C797S limits assumed): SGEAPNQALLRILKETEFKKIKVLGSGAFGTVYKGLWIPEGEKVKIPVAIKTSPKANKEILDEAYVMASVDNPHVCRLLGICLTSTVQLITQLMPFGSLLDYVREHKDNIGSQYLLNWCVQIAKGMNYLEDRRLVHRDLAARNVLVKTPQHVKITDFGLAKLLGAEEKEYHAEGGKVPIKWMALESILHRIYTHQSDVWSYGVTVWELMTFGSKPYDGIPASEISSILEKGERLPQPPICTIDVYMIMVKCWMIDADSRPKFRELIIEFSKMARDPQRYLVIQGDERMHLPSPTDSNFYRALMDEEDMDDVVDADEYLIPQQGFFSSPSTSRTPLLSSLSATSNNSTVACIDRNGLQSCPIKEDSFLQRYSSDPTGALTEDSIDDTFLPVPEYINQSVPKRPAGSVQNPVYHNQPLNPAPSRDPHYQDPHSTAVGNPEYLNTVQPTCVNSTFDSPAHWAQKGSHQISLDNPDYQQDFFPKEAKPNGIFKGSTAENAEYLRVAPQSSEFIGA
T9 sequence (P00533 with tags, fused parts or gaps DEL746-750 limits assumed): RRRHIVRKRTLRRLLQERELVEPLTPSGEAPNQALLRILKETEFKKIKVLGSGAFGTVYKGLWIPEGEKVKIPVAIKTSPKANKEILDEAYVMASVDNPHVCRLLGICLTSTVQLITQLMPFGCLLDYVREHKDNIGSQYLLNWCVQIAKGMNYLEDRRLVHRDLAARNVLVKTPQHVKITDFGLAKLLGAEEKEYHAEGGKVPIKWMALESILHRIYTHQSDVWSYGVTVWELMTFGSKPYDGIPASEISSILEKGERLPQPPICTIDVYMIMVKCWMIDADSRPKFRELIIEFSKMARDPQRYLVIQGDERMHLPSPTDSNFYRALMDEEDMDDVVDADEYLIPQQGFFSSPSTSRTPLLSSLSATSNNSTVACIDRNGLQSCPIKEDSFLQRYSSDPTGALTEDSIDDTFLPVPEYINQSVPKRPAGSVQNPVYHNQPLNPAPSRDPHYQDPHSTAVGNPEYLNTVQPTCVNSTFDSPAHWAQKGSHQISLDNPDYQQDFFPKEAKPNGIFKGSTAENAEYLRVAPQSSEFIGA

| Compound | GI50 (A-431) [nM] | GI50 [1, 3] [nM] | GI50 [1, 4] [nM] | GI50 [1, 5] [nM] | GI50 [1, 6] [nM] | GI50 [1, 7] [nM] | GI50 [1, 8] [nM] | GI50 [1, 9] [nM] | GI50 (PC-9; [10]) [nM] | also measured |
| --- | --- | --- | --- | --- | --- | --- | --- | --- | --- | --- |
| Cn1ncc2c1OCCN1CC3CCC(C3)(C1)n1c(nc3ccc(N4CCOCC4)cc31)NC(=O)c1cc-2c(=O)n(C)c1 (single isomer, unassigned) [Example A62A, 15,21-Dimethyl-5-(morpholin-4-yl)-23-oxa-2,9,11,15,20,21,26-heptaazaheptacyclo[24.4.1.1^{1,28}.1^{13,17}.0^{2,10}.0^{3,8}.0^{18,22}]tritriaconta-3,5,7,9,13,17(33),18(22),19-octaene-12,16-dione] | 7120 | 393 | 1350 | 2150 | 1200 | 2380 | 1050 | 1400 | 1320 | – |
| CN1CCN(c2ccc3nc4n(c3c2)C23CCC(CN(CCOc5c(cnn5C)-c5cc(cn(C)c5=O)C(=O)N4)C2)C3)CC1 (single isomer, unassigned) [Example A63A] | 9370 | 324 | 540 | 2370 | 1020 | 988 | 3690 | 929 | 841 | – |
| CN(C)C1CN(c2ccc3nc4n(c3c2)C23CCC(CN(CCOc5c(cnn5C)-c5cc(cn(C)c5=O)C(=O)N4)C2)C3)C1 (single isomer, unassigned) [Example A65A] | 2200 | 209 | 452 | 945 | 561 | 656 | 1970 | 652 | 710 | – |
| CN1CC2CN(c3ccc4nc5n(c4c3)C34CCC(CN(CCOc6c(cnn6C)-c6cc(cn(C)c6=O)C(=O)N5)C3)C4)CC2C1 (single isomer, unassigned) [Example A68A] | 5320 | 196 | 409 | 480 | 402 | 366 | 1120 | 543 | 460 | – |
| CN1CCN(C2CN(c3ccc4nc5n(c4c3)C34CCC(CN(CCOc6c(cnn6C)-c6cc(cn(C)c6=O)C(=O)N5)C3)C4)C2)CC1 (single isomer, unassigned) [Example A70A] | 3100 | 188 | 411 | 603 | 452 | 463 | 1870 | 517 | 554 | – |
| Cc1cc2cc(n1)-c1cnn(C)c1OCCCCCn1c(nc3ccc4c(c31)CCN(CCN(C)C)C4)NC2=O [Example B23, 18-[2-(Dimethylamino)ethyl]-5,30-dimethyl-7-oxa-4,5,13,18,24,26,31-heptaazahexacyclo[26.3.1.0^{2,6}.0^{13,25}.0^{14,23}.0^{15,20}]dotriaconta-1(31),2(6),3,14,20,22,24,28(32),29-nonaen-27-one] | – | – | – | – | – | – | – | – | – | IC50 (EGFR Exon19Del/T790M; IC50 @Del19-T790M): 3.8 nM; IC50 (EGFR[T790M/C797S/L858R]; IC50 @T790M- C797S - L858R): 5.4 nM; IC50 (EGFR wild type; IC50 @WT): > 5000 nM; IC50 (EGFR L858R/T790M; IC50 @L858R-T790M): 12 nM; GI50 [1, 11]: 22 nM; GI50 [1, 12]: 15 nM; GI50 [1, 13]: 195 nM; GI50 [1, 14]: 5.9 nM; GI50 [1, 15]: 442 nM; GI50 [1, 16]: 7.2 nM; IC50 (EGFR (C797S L858R); IC50 @L858-C797S): 73 nM; IC50 (EGFR (d746-750 C797S); IC50 @Del19-C797S): 6.5 nM; IC50 (EGFR L858R; IC50 @L858R): > 5000 nM; GI50 (PC-9; [17]): 113 nM; IC50 ([2]; IC50 @T790M - C797S - Del19, EGFR[T790M/C797S/d746-750]): 2.5 nM; IC50 (EGFR Exon19Del; IC50 @Del19, EGFR Exon19Del): 16 nM |
| Cc1cc2cc(n1)-c1cnn(C)c1OCCN1CC3CCC(CC3)(C1)n1c(nc3ccc(N4CC[C@@H](N(C)C)C4)cc31)NC2=O [Example B29] | – | – | – | – | – | – | – | – | – | IC50 (EGFR Exon19Del/T790M; read-out: IC50 @Del19-T790M): 17 nM; IC50 (EGFR[T790M/C797S/L858R]; read-out: IC50 @T790M- C797S - L858R): 13 nM; IC50 (EGFR wild type; read-out: IC50 @WT): > 5000 nM; IC50 (EGFR L858R/T790M; read-out: IC50 @L858R-T790M): 28 nM; GI50 [1, 11]: 26 nM; GI50 [1, 12]: 9 nM; GI50 [1, 13]: 171 nM; GI50 [1, 14]: 19 nM; GI50 ([1]; Mus musculus, BaF3, 72 h, BaF3 cells, EGFR L858R - T790M, read-out: GI50 L858R - T790M/BaF3): 37 nM; GI50 [1, 15]: 149 nM; GI50 [1, 16]: 11 nM; IC50 (EGFR (C797S L858R); read-out: IC50 @L858-C797S): 204 nM; IC50 (EGFR (d746-750 C797S); read-out: IC50 @Del19-C797S): 28 nM; IC50 (EGFR L858R; read-out: IC50 @L858R): 352 nM; GI50 (PC-9; [17]): 155 nM; IC50 ([2]; EGFR[T790M/C797S/d746-750], read-out: IC50 @T790M - C797S - Del19): 8.6 nM; IC50 (EGFR Exon19Del; EGFR Exon19Del, read-out: IC50 @Del19): 45 nM |
